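Exposure lasted 48 hours, with cells grown in 96-well plates and compounds tested at five concentrations. GI50: concentration for 50% inhibition of growth.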 Active and inactive are the calls of the source. Rule as the data show it: active = GI50 up to about 1.1 µM and inactive = higher.

Some test systems named below: HCC 2998; RPMI-8226; SR; DMS-114; COLO 205; HCT-116; M14; CCRF-CEM; SF-268; DMS-273; DLD-1; SNB-78; NCI-H226; A498; SF-295; MOLT-4; Hs-578T; MDA-MB-231; MDA-N; BT-549.
Holding throughout (experiment): growth of human tumour cells (NCI), 48 h

Turning to `Cc1ccc(NC(=O)SCCC(=O)O)cc1`, the GI50 in the assay with HCC 2998, in the assay on RPMI-8226, in the assay on SR, in the assay with DMS-114, in the assay on COLO 205 and in the assay with HCT-116 was > 100 µM (inactive) each time. The GI50 in the assay with M14 was > 100 µM (inactive); in the assay on CCRF-CEM, > 100 µM (inactive); in the assay on SF-268, 17.2 µM (inactive); with DMS-273 it was > 100 µM (inactive); in the assay with DLD-1 it was > 100 µM (inactive); in the assay on SNB-78, > 100 µM (inactive). Also, the GI50 in the assay on NCI-H226, in the assay with A498, in the assay on SF-295 and in the assay on MOLT-4 was > 100 µM (inactive) each time.

For the compound `CCSC(=O)N1c2ccc(OC)cc2C=CC1C#N` (stereo not drawn), the GI50 in the assay with Hs-578T was 0.36 µM (active); in the assay on HCC 2998, 0.00895 µM (active); in the assay with RPMI-8226, 0.00273 µM (active); in the assay with SR, 0.000843 µM (active); in the assay on DMS-114, < 0.01 µM (active); in the assay on MDA-MB-231, 0.00589 µM (active). The GI50 in the assay with MDA-N is 0.00306 µM (active); in the assay with COLO 205, 0.00298 µM (active); with HCT-116, 0.000509 µM (active); in the assay with M14 it was 0.00601 µM (active); with CCRF-CEM, 0.00313 µM (active); with SF-268 it was 0.00113 µM (active). Further, the GI50 in the assay on DMS-273 was < 0.01 µM (active); in the assay on BT-549 it was < 0.01 µM (active); with DLD-1 it was < 0.01 µM (active); with SNB-78, 51.8 µM (inactive); with NCI-H226 it was 0.00759 µM (active); in the assay with A498, < 0.01 µM (active). Moreover, the GI50 is 0.00405 µM (active) in the assay with SF-295 and 0.00345 µM (active) with MOLT-4.

Consider `Nc1ccc(Cn2ccc3c4c(N)nc(N)nc4ccc32)cc1`, for which the GI50 is 2.28 µM (inactive) in the assay on Hs-578T; < 0.0268 µM (active) in the assay with HCC 2998; 0.165 µM (active) in the assay with RPMI-8226; 0.0393 µM (active) in the assay on SR; < 0.01 µM (active) with DMS-114; 1.06 µM (active) in the assay with MDA-MB-231. Further, the GI50 with MDA-N was < 0.01 µM (active); in the assay with COLO 205, 0.628 µM (active); with HCT-116 it was < 0.01 µM (active); in the assay on M14 it was < 0.0114 µM (active); in the assay on CCRF-CEM it was < 0.01 µM (active); in the assay with SF-268, < 0.0156 µM (active). Moreover, the GI50 in the assay with DMS-273 was < 0.01 µM (active); in the assay on BT-549, 0.219 µM (active); with DLD-1, < 0.01 µM (active); in the assay on SNB-78, 7.35 µM (inactive); in the assay with NCI-H226 it was 4.27 µM (inactive); in the assay with SF-295, < 0.01 µM (active). Moreover, the GI50 in the assay with MOLT-4 is < 0.0122 µM (active).

On to `O=c1n(C2CCCCC2)c(=C(Cl)Cl)c(=C(Cl)Cl)n1C1CCCCC1`, for which the GI50 was > 100 µM (inactive) in the assay on HCC 2998; 34.6 µM (inactive) in the assay with RPMI-8226; > 100 µM (inactive) in the assay with SR; 53.1 µM (inactive) in the assay on DMS-114; > 100 µM (inactive) with COLO 205; 85.7 µM (inactive) in the assay with HCT-116. Besides, the GI50 in the assay on CCRF-CEM was > 100 µM (inactive); in the assay on SF-268 it was > 100 µM (inactive); in the assay on DMS-273, > 100 µM (inactive); in the assay with DLD-1, > 100 µM (inactive); in the assay with SNB-78, 85.1 µM (inactive); in the assay on NCI-H226 it was > 100 µM (inactive). Further, the GI50 with A498, in the assay on SF-295 and in the assay with MOLT-4 was > 100 µM (inactive) in each case.

`CC(=O)NNc1nc(C)c(C(=O)/C=C/c2cccc([N+](=O)[O-])c2)s1`: the GI50 with HCC 2998, with RPMI-8226, with SR, with DMS-114, in the assay on COLO 205 and with HCT-116 was > 100 µM (inactive) each time. For the same compound, the GI50 with M14, with CCRF-CEM, with SF-268, in the assay on DMS-273, in the assay with DLD-1 and in the assay with SNB-78 was > 100 µM (inactive) each time. For the same compound, the GI50 in the assay with NCI-H226, in the assay with A498, in the assay with SF-295 and in the assay on MOLT-4 was > 100 µM (inactive) in each case.

For `Cc1c(N)nc(C2CC(=O)N2CC(N)C(N)=O)nc1C(=O)NC(C(=O)NC(C)C(O)C(C)C(=O)NC(C(=O)NCCc1nc(-c2nc(C(=O)NCCNCC(C)O)cs2)cs1)C(C)O)C(OC1OC(CO)C(O)C(O)C1OC1OC(CO)C(O)C(OC(N)=O)C1O)c1c[nH]cn1` (stereo not drawn), the GI50 was 2.3 µM (inactive) in the assay on Hs-578T; 21.9 µM (inactive) in the assay on HCC 2998; 9.02 µM (inactive) in the assay with RPMI-8226; 0.397 µM (active) with DMS-114; > 50 µM (inactive) in the assay on MDA-MB-231; > 50 µM (inactive) in the assay on MDA-N. Moreover, the GI50 in the assay on COLO 205 is 3.08 µM (inactive); with HCT-116, 0.148 µM (active); in the assay on M14, 2.26 µM (inactive); in the assay with CCRF-CEM, 7.74 µM (inactive); with SF-268, 0.5 µM (active); in the assay on DMS-273, 0.129 µM (active). Also, the GI50 in the assay on BT-549 was > 50 µM (inactive); in the assay with DLD-1 it was 32.4 µM (inactive); with SNB-78 it was > 89.3 µM (inactive); in the assay on NCI-H226 it was 0.0223 µM (active); with A498 it was 5.35 µM (inactive); with SF-295 it was 0.167 µM (active). In the assay with MOLT-4, the GI50 was 0.701 µM (active).

`O=CN/C=C/c1ccccc1O`: the GI50 with HCC 2998, in the assay with RPMI-8226, in the assay with SR, in the assay on DMS-114, in the assay with COLO 205 and in the assay with HCT-116 was > 100 µM (inactive) throughout. The GI50 in the assay with M14 is > 100 µM (inactive); in the assay with CCRF-CEM, > 100 µM (inactive); with SF-268, > 79.8 µM (inactive); in the assay with DMS-273 it was > 100 µM (inactive); in the assay with DLD-1, > 100 µM (inactive); in the assay on SNB-78 it was > 100 µM (inactive). The GI50 in the assay with NCI-H226, with A498, in the assay with SF-295 and with MOLT-4 was > 100 µM (inactive) each time.

On to `COC(=O)C1=C(\O)C[C@@]2(C)CC[C@@H](C(=O)OC)C2C/C=C\1C(=O)OC` (stereo partly drawn), for which the GI50 with HCC 2998 was > 100 µM (inactive); in the assay on RPMI-8226, 50.1 µM (inactive); in the assay with SR, 81.3 µM (inactive); in the assay with DMS-114, 29.4 µM (inactive); in the assay on COLO 205 it was > 100 µM (inactive); with HCT-116 it was 66.1 µM (inactive). Also, the GI50 was > 100 µM (inactive) in the assay on M14; > 100 µM (inactive) with CCRF-CEM; 70.5 µM (inactive) in the assay on SF-268; > 100 µM (inactive) in the assay with DMS-273; > 100 µM (inactive) in the assay on DLD-1; > 100 µM (inactive) in the assay on SNB-78. Further, the GI50 was 89.1 µM (inactive) with NCI-H226, 23 µM (inactive) in the assay on A498, > 100 µM (inactive) in the assay on SF-295 and 46.6 µM (inactive) with MOLT-4.

On to `Cn1c(=O)c2c(nc3n2C(CCl)CO3)n(C)c1=O` (stereo not drawn), for which the GI50 with HCC 2998, in the assay with RPMI-8226, with SR, in the assay on DMS-114, in the assay on COLO 205 and in the assay with HCT-116 was > 100 µM (inactive) each time. The GI50 in the assay with M14, in the assay with CCRF-CEM, in the assay on SF-268, in the assay on DMS-273, in the assay on DLD-1 and in the assay with SNB-78 was > 100 µM (inactive) each time. The GI50 with NCI-H226, with A498, in the assay on SF-295 and with MOLT-4 was > 100 µM (inactive) each time.

These data come from ChEMBL document CHEMBL1201862, “PubChem BioAssay data set” (2004).
